Results: patent publication US4200650A, “2-Amino-cyclopent-1-ene-1-thiocarboxylic acid-disulfides to treat noradrenergic malfunctions” (Richter Gedeon Vegyeszeti Gyar Rt., priority 1976, dated 1980)

Experiments:
Type in all cases: in vivo, male Wistar rats
dopamine-β-hydroxylase [1] = assay: Determination of the adrenaline content of adrenal gland; conditions: ± standard error
Method: (§1) The dopamine-β-hydroxylase inhibiting effects of the new compounds according to the invention were examined by the following tests:
(§2) The tests were performed on male Wistar rats weighing 150 to 200 g. The dopamine-β-hydroxylase inhibiting effects of the compounds were evaluated by determining the change of noradrenaline, dopamine and adrenaline levels of the cerebrum, heart, spleen and adrenal gland. The serotonine and 5-hydroxy-indolylacetic acid levels of the cerebrum were also determined. The measurements were performed as follows:
(§3) The animals were decapitated, the cerebrum, heart, spleen and adrenal gland were removed quickly, and the organs were frozen by placing them onto a metal sheet cooled with dry ice. The frozen organs were stored for maximum one night at -20° C.
Determination of the adrenaline content of adrenal gland
The adrenal glands were freed from fat and homogenized in 3.0 ml of ice-cold 0.4 n perchloric acid. The homogenized mixtures were centrifuged for 10 minutes at 0° C. with a speed of 3200 r.p.m. using a Janetzky K-70 type centrifuge. 0.05 ml samples were taken from the supernatant, and the adrenaline level was determined directly by the method of Laverty et al. (Anal. Biochem. 22, 269/1968/).
(§4) In the tests disulfiram, 2,2-dipyridyl, bis(1-methyl-4-homopiperazinyl-thriocaronyl)-disulfide, sodium diethyldithiocarbamate and N-phenyl-N'-(2-thiazolyl)-thiourea were applied as reference substances. The values indicated in Table 1 are the percentages in relation to the amine levels of the controls measured in the same tests (± standard error). The statistical calculations were performed on a TPA/i type computer, using Student's t test.

dopamine-β-hydroxylase [2] = assay: Determination of the noradrenaline content of spleen; conditions: ± standard error
Method: as §1, §2, §3
(§5) Determination of the noradrenaline content of heart and spleen
(§6) The organs were weighed in frozen state and then homogenized in 5.0 ml of 0.4 n perchloric acid containing 0.05% of EDTA-Naa and 0.1% of Na2 S2 O5. The homogenized mixtures were centrifuged as described above for the treatment of adrenal gland, the supernatants were decanted, and the pH was adjusted to 8.0±0.1 with a 0.1 molar tris buffer containing 20 g/l of NaOH and 25 g/l of EDTA-Na2. 100 mg of prepared Al2 O3 (Anton et al.: J. Pharm. Ther. 138, 360/1962/) were added to the samples, and the mixtures were shaken mechanically for 20 minutes. Thereafter Al2 O3 was washed with 2×10 ml of distilled water, and noradrenaline was eluted with 1.0 ml of 0.05 n perchloric acid. 0.5 ml samples of the eluate were applied for the determination of noradrenaline. Noradrenaline was determined according to the method of Shellenberger et al. (Anal. Biochem. 39, 356/1971/), with the following modifications of the basic procedure: 0.5 ml of 0.1 molar Na-K-phosphate buffer, containing 9 g/l of EDTA-Na2, were added to 0.5 ml of the eluate, and the catecholamines (noradrenaline in the examination of heart and spleen and noradrenaline and dopamine in the examination of the cerebrum) were oxidized with 0.1 ml of a 0.1 n iodine solution in 5% potassium iodide. After exactly 2 minutes oxidation was stopped by adding 0.25 ml of a 2.5% sodium sulfite solution in 4.4 n aqueous sodium hydroxide to the mixture. 2 minutes after the introduction of the alkaline sulfite solution 0.2 ml of concentrated acetic acid were added to the samples, upon which the pH decreased to 4.4 to 4.5 Thereafter the samples were placed for 5 minutes into a drying oven heated to 100° C., and then the samples were cooled with ice water. The fluorescency of noradrenaline was measured with an OPTON spectrophotometer at wavelengths of 380 nm (excitation) and 490 nm (emission).
as §4

dopamine-β-hydroxylase [3] = assay: Determination of the noradrenaline content of heart; conditions: ± standard error
Method: as §1, §2, §3, §5, §6, §4

dopamine-β-hydroxylase [4] = assay: Determination of noradrenaline and dopamine levels of brain (dopamine-β-hydroxylase inhibiting effect)
Method: as §1, §2, §3
Determination of the noradrenaline, dopamine, serotonine and 5-hydroxy-indolylacetic acid contents of brain
The brains were homogenized in 10 parts by volume of 0.4 n perchloric acid. The homogenized mixture was stored at -20° C. overnight, thereafter it was thawed and centrifuged as described above. A sample of the homogenized mixture corresponding to 0.5 g of brain was removed, the pH of the sample was adjusted to 8.0±0.1 with 0.1 molar tris-buffer of the above composition, and the sample was processed as described above for the determination of the noradrenaline content of heart and spleen, with the difference that 1.5 ml of 0.05 n perchloric acid were applied as eluting agent. 0.5 ml of the eluate were applied to determine the noradrenaline and dopamine contents. The measurement was performed as described above, with the difference that samples of 0.5 ml were applied for the recording of the fluorescency of noradrenaline. The residua was placed for 50 minutes into a drying oven heated to 100° C., thereafter the sample was cooled with ice water, and the fluorescency of dopamine was recorded at wavelengths of 325 nm (excitation) and 380 nm (emission).
In a further test series the serotonine and 5-hydroxy-indolylacetic acid contents were also determined, beside the determination of the noradrenaline and dopamine content, from the same sample. In this instance the brains were homogenized in 10 ml of 75% ethanol, 0.2 ml of EDTA-Na2 and 5% of ascorbic acid were added to the homogenized mixtures, and the homogenized mixtures were maintained at -20° C. overnight. The mixtures were centrifuged as described above, and 5.0 ml samples of the supernatant were removed. The samples were diluted with equal volumes of distilled water, and poured onto ion exchange columns of 0.5×1.5 cm dimensions, filled with buffered Amberlite CG-30 (200 to 400 mesh). The columns were washed with 5 ml of distilled water followed by 1.0 ml of 0.2 n hydrochloric acid, and the first effluent and the aqueous wash were collected for the determination of 5-hydroxy-indolylacetic acid. Elution was continued with further 1.2 ml of 0.2 n hydrochloric acid in order to remove noradrenaline, dopamine and serotonine. Samples of 0.3 ml were used for the determinations.
Noradrenaline and dopamine were determined by the method of Shellenberger, modified as described above, whereas serotonine was determined by the method of Curzon et al. (Brit. J. Pharmacol. 39, 653/1970/). The basic method was modified as follows: A 0.5% solution of ortho-phthal(di)aldehyde in absolute ethanol was diluted with 10 n hydrochloric acid to 50-fold of its original volume, and 0.6 ml of the resulting 0.01% ortho-phthal(di)aldehyde solution were added immediately to 0.5 ml of the serotonine-containing sample. The sample was placed into a hot water bath for 10 minutes, thereafter cooled with tap water, and the fluorescency was recorded at wavelengths of 360 nm (excitation) and 490 nm (emission).
In the tests disulfiram, 2,2-dipyridyl, bis(1-methyl-4-homopiperazinyl-thriocaronyl)-disulfide, sodium diethyldithiocarbamate and N-phenyl-N'-(2-thiazolyl)-thiourea were applied as reference substances. […]

[5] = i.p., 200 mg/kg, 4 hours, ± standard error
[6] = i.p., 200 mg/kg, 8 hours, ± standard error
[7] = i.p., 50 mg/kg, 4 hours, ± standard error
[8] = i.p., 100 mg/kg, 4 hours, ± standard error
[9] = p.o., 500 mg/kg, 4 hours, ± standard error
[10] = p.o., 500 mg/kg, 8 hours, ± standard error
[11] = i.p., 400 mg/kg, time not given

SMILES | Adrenal gland AD (adrenaline) level, percentages in relation to the controls (dopamine-β-hydroxylase [1]; i.p., 200 mg/kg, 4 hours) [%] | Adrenal gland AD (adrenaline) level, percentages in relation to the controls (dopamine-β-hydroxylase [1]; i.p., 200 mg/kg, 8 hours) [%] | Spleen NA (noradrenaline) level, percentages in relation to the controls (dopamine-β-hydroxylase [2]; i.p., 200 mg/kg, 4 hours) [%] | Spleen NA (noradrenaline) level, percentages in relation to the controls (dopamine-β-hydroxylase [2]; i.p., 200 mg/kg, 8 hours) [%] | Heart NA (noradrenaline) level, percentages in relation to the controls (dopamine-β-hydroxylase [3]; i.p., 200 mg/kg, 4 hours) [%] | Heart NA (noradrenaline) level, percentages in relation to the controls (dopamine-β-hydroxylase [3]; i.p., 200 mg/kg, 8 hours) [%] | Brain DA (dopamine) level, percentages in relation to the controls (dopamine-β-hydroxylase [4]; [5]) [%] | Brain NA (noradrenaline) level, percentages in relation to the controls (dopamine-β-hydroxylase [4]; [5]) [%] | Brain DA (dopamine) level, percentages in relation to the controls (dopamine-β-hydroxylase [4]; [6]) [%] | Brain NA (noradrenaline) level, percentages in relation to the controls (dopamine-β-hydroxylase [4]; [6]) [%] | Adrenal gland AD (adrenaline) level, percentages in relation to the controls (dopamine-β-hydroxylase [1]; i.p., 100 mg/kg, 4 hours) [%] | Adrenal gland AD (adrenaline) level, percentages in relation to the controls (dopamine-β-hydroxylase [1]; p.o., 500 mg/kg, 4 hours) [%] | Heart NA (noradrenaline) level, percentages in relation to the controls (dopamine-β-hydroxylase [3]; i.p., 100 mg/kg, 4 hours) [%] | Heart NA (noradrenaline) level, percentages in relation to the controls (dopamine-β-hydroxylase [3]; p.o., 500 mg/kg, 4 hours) [%] | Brain DA (dopamine) level, percentages in relation to the controls (dopamine-β-hydroxylase [4]; [8]) [%] | Brain NA (noradrenaline) level, percentages in relation to the controls (dopamine-β-hydroxylase [4]; [8]) [%] | Brain DA (dopamine) level, percentages in relation to the controls (dopamine-β-hydroxylase [4]; [9]) [%] | Brain NA (noradrenaline) level, percentages in relation to the controls (dopamine-β-hydroxylase [4]; [9]) [%] | Adrenal gland AD (adrenaline) level, percentages in relation to the controls (dopamine-β-hydroxylase [1]; p.o., 500 mg/kg, 8 hours) [%] | Spleen NA (noradrenaline) level, percentages in relation to the controls (dopamine-β-hydroxylase [2]; i.p., 100 mg/kg, 4 hours) [%] | further results
C=CCNC1=C(C(=S)SSC(=S)C2=C(NCC=C)CCC2)CCC1 [Compound M-7, 2-(N-allyl)-amino-cyclopent-1-ene-thiocarboxylic acid-disulfide] | 93.3±8.0 | 69.8±6.8 | 66.1±18.1 | 88.5±33.9 | 100.0±3.9 | 91.8±3.7 | 123.6±8.1 | 50.5±5.2 | 104.7±5.7 | 64.5±4.4 |  |  |  |  |  |  |  |  |  |  | 
CCCCNC1=C(C([O-])=S)CCC1.CCCCNC1=C(C([O-])=S)CCC1.[Zn+2] [Compound M-3, 2-(N-butyl)-amino-cyclopent-1-ene-thiocarboxylic acid-disulfide(zinc salt)] |  |  |  |  |  |  |  |  |  |  | 60.5±3.6 | 100.3±8.3 | 91.5±8.1 | 108.8±3.2 | 121.3±6.1 | 73.5±3.2 | 99.2±5.0 | 98.8±2.5 |  |  | Adrenal gland AD (adrenaline) level, percentages in relation to the controls (dopamine-β-hydroxylase [1]; i.p., 50 mg/kg, 4 hours): 66.3±5.5%; Heart NA (noradrenaline) level, percentages in relation to the controls (dopamine-β-hydroxylase [3]; i.p., 50 mg/kg, 4 hours): 84.5±4.1%; Brain DA (dopamine) level, percentages in relation to the controls (dopamine-β-hydroxylase [4]; [7]): 112.2±12.0%; Brain NA (noradrenaline) level, percentages in relation to the controls (dopamine-β-hydroxylase [4]; [7]): 85.0±7.1%
COCCNC1=C(C(=S)SSC(=S)C2=C(NCCOC)CCC2)CCC1 [Compound M-4, 2-(N-methoxyethyl)-amino-cyclopent-1-ene-thiocarboxylic acid disulfide] | 96.3±6.7 | 97.0±7.9 | 69.9±16.9 | 61.9±9.9 | 91.7±9.2 | 75.7±3.7 | 134.6±4.0 | 39.6±4.9 | 120.6±5.8 | 28.5±1.4 | 77.5±6.3 | 96.3±6.0 | 91.8±5.9 | 86.3±10.1 | 131.5±8.9 | 41.9±2.7 | 114.5±2.4 | 73.6±2.8 | 88.1±5.1 | 81.4±10.8 | Spleen NA (noradrenaline) level, percentages in relation to the controls (dopamine-β-hydroxylase [2]; p.o., 500 mg/kg, 4 hours): 103.1±18.9%; Spleen NA (noradrenaline) level, percentages in relation to the controls (dopamine-β-hydroxylase [2]; p.o., 500 mg/kg, 8 hours): 101.0±14.3%; Heart NA (noradrenaline) level, percentages in relation to the controls (dopamine-β-hydroxylase [3]; p.o., 500 mg/kg, 8 hours): 74.0±8.4%; Brain DA (dopamine) level, percentages in relation to the controls (dopamine-β-hydroxylase [4]; [10]): 111.0±4.0%; Brain NA (noradrenaline) level, percentages in relation to the controls (dopamine-β-hydroxylase [4]; [10]): 51.2±2.8%
CCN(CC)C(=S)[S-].[Na+] [DDC-Na, sodium diethyldithiocarbamate, reference compound] |  |  |  |  |  |  |  |  |  |  |  |  |  |  |  |  |  |  |  |  | Brain DA (dopamine) level, percentages in relation to the controls (dopamine-β-hydroxylase [4]; [11]): 120%; Brain NA (noradrenaline) level, percentages in relation to the controls (dopamine-β-hydroxylase [4]; [11]): 64.1%
CCNC1=C(C(=S)SSC(=S)C2=C(NCC)CCC2)CCC1 [Compound M-6, 2-(N-ethyl)-amino-cyclopent-1-ene-thiocarboxylic acid-disulfide] | 97.3±4.1 | 79.0±3.9 | 85.0±10.8 | 86.5±23.5 | 97.8±8.8 | 81.3±5.7 | 134.9±5.4 | 34.4±2.6 | 121.7±6.1 | 34.2±3.5 | 123.4±4.6 | 121.4±13.7 | 92.9±3.3 | 82.4±8.2 | 99.0±5.22 | 41.8±2.3 | 106.7±3.4 | 83.9±4.8 | 107.5±8.9 | 64.1±7.6 | Spleen NA (noradrenaline) level, percentages in relation to the controls (dopamine-β-hydroxylase [2]; p.o., 500 mg/kg, 4 hours): 125.4±12.4%; Spleen NA (noradrenaline) level, percentages in relation to the controls (dopamine-β-hydroxylase [2]; p.o., 500 mg/kg, 8 hours): 64.6±12.4%; Heart NA (noradrenaline) level, percentages in relation to the controls (dopamine-β-hydroxylase [3]; p.o., 500 mg/kg, 8 hours): 97.5±5.6%; Brain DA (dopamine) level, percentages in relation to the controls (dopamine-β-hydroxylase [4]; [10]): 92.6±4.0%; Brain NA (noradrenaline) level, percentages in relation to the controls (dopamine-β-hydroxylase [4]; [10]): 73.7±4.7%
